Where two headings read alike, the source gives them in different places.
Target: T1, EBP-Ig (N-terminal 225 amino acids of the human EPO receptor joined to an Ig heavy chain) (Homo sapiens, UniProt P19235)
T1 construct: Ig heavy chain (fusion partner); made in house; host or cells: NSO cells (secreted into conditioned media)
T1 sequence (P19235 25-250 limits assumed): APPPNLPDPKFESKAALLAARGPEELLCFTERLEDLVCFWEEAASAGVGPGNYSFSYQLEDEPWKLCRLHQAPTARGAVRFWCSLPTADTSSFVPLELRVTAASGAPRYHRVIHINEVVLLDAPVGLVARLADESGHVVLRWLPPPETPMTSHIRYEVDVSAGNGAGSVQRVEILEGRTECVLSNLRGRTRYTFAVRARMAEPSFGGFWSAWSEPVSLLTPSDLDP
Experiment: Inhibition of [125I]EPO binding to immobilized EBP-Ig (EPO binding protein-Ig), scintillation Flash plate competition assay
Description: The interaction of biotin and streptavidin is frequently employed to capture and effectively immobilize reagents useful in assay protocols and has been employed here as a simple method to capture and immobilize EBP-Ig. EBP-Ig is initially randomly modified with an amine reactive derivative of biotin to produce biotinylated-EBP-Ig. Use of streptavidin coated plates allows the capture of the biotinylated EBP-Ig on the surface of a scintillant impregnated coated well (Flash plates, NEN-DuPont). […] The amount of light produced was quantified to estimate the amount of ligand binding. The specific assay format was suitable for the multi-well plate capacity of a Packard TopCount Microplate Scintillation counter.
Biotinylated EBP-Ig was prepared as follows. EBP-Ig (3 mL, OD280 2.9) was exchanged into 50 mM sodium bicarbonate, pH 8.5 using a Centriprep 10 ultrafiltration device. The final volume of the exchanged protein was 1.2 mL (OD280 2.6, representing about 2 mg total protein). 10 μL of a 4 mg/ml solution of NHS-LC-Biotin (Pierce) was added and the reaction mixture placed on ice in the dark for two hours. Unreacted biotin was removed by exchange of the reaction buffer into PBS in a Centriprep 10 device and the protein reagent aliquoted and stored at −70° C.
All wells were adjusted to a final DMSO concentration of 5%. […] After all additions were made, the plate was covered with an adhesive top seal and placed in the dark at room temperature overnight. The next day all liquid was aspirated from the wells to limit analyte dependent quench of the signal, and the plates were counted on a Packard TOPCOUNT Microplate Scintillation Counter. […] Corrected total binding (CTB) was calculated as: TB−NSB=CTB. […] Table 1 lists the average % inhibition, and if determined the IC50 and IC30 values for compounds of Formula I, where the compound numbers refer to the compounds in the tables accompanying the preparative examples.

Structure (SMILES)	EPO/EBP-Ig % inh @ 50 μM (Table 3, 50 μM) [%]	EPO/EBP-Ig % inh @ 50 μM (Table 4, 50 μM) [%]	other results
N=C(N)NCCCC(C(=O)O)N(CC=Cc1cccs1)CC=Cc1cccs1 (stereo not drawn) [compound 49]	1	–	–
O=C(O)CCC(C(=O)O)N(CC=Cc1cccs1)CC=Cc1cccs1 (stereo not drawn) [compound 52]	21	–	–
O=C(O)CC(C(=O)O)N(CC=Cc1cccs1)CC=Cc1cccs1 (stereo not drawn) [compound 53]	14	–	–
CC(C(=O)O)N(CC=Cc1cccs1)CC=Cc1cccs1 (stereo not drawn) [compound 54]	18	–	–
NC(=O)CCC(C(=O)O)N(CC=Cc1cccs1)CC=Cc1cccs1 (stereo not drawn) [compound 55]	4	–	–
O=C(NCCCCC(C(=O)OCc1ccccc1)N(CC=Cc1cccs1)CC=Cc1cccs1)OCc1ccccc1 (stereo not drawn) [compound 57]	0	–	–
COC(=O)C(CCC(=O)OC(C)(C)C)N(CC=Cc1cccs1)CC=Cc1cccs1 (stereo not drawn) [compound 59]	26	–	–
CCOC(=O)CCC(C(=O)OC)N(C/C=C/c1cccs1)C/C=C/c1cccs1 (stereo not drawn) [compound 60]	9	–	–
COC(=O)C(CCC(=O)O)N(C/C=C/c1cccs1)C/C=C/c1cccs1 (stereo not drawn) [compound 61]	14	–	–
O=C(O)CC(C(=O)O)N(Cc1cccc(NCc2ccccc2)c1)Cc1cccc(Oc2ccccc2)c1 (stereo not drawn) [compound 63]	–	20	–
Cc1ccc(S(=O)(=O)Nc2cccc(CN(Cc3cccc(NS(=O)(=O)c4ccc(C)cc4)c3)C(CC(=O)O)C(=O)O)c2)cc1 (stereo not drawn) [compound 65]	–	−7	–
O=C(O)CC(C(=O)O)N(Cc1cccc(NCc2cccc(Cl)c2)c1)Cc1cccc(Oc2ccccc2)c1 (stereo not drawn) [compound 66]	–	−16	–
O=C(O)CC(C(=O)O)N(Cc1cccc(NCc2cccc(Br)c2)c1)Cc1cccc(Oc2ccccc2)c1 (stereo not drawn) [compound 67]	–	−8	–
O=C(O)CC(C(=O)O)N(Cc1cccc(NCc2ccccc2F)c1)Cc1cccc(Oc2ccccc2)c1 (stereo not drawn) [compound 68]	–	−13	–
Cc1ccccc1CNc1cccc(CN(Cc2cccc(Oc3ccccc3)c2)C(CC(=O)O)C(=O)O)c1 (stereo not drawn) [compound 69]	–	−13	–
O=C(O)CC(C(=O)O)N(Cc1cccc(NCc2ccc(F)cc2)c1)Cc1cccc(Oc2ccccc2)c1 (stereo not drawn) [compound 70]	–	−8	–
Cc1ccc(Oc2cccc(CN(Cc3cccc(NCc4cccc(Cl)c4)c3)C(CC(=O)O)C(=O)O)c2)cc1 (stereo not drawn) [compound 71]	–	−6	–
Cc1ccc(Oc2cccc(CN(Cc3cccc(NCc4c(F)c(F)c(F)c(F)c4F)c3)C(CC(=O)O)C(=O)O)c2)cc1 (stereo not drawn) [compound 72]	–	−14	–
Cc1ccc(Oc2cccc(CN(Cc3cccc(NCc4ccccc4F)c3)C(CC(=O)O)C(=O)O)c2)cc1 (stereo not drawn) [compound 73]	–	−13	–
Cc1ccc(Oc2cccc(CN(Cc3cccc(NCc4cccc(C#N)c4)c3)C(CC(=O)O)C(=O)O)c2)cc1 (stereo not drawn) [compound 74]	–	−7	–
Cc1ccc(Oc2cccc(CN(Cc3cccc(NCc4ccccc4)c3)C(CC(=O)O)C(=O)O)c2)cc1 (stereo not drawn) [compound 75]	–	−2	–
CC(C)(C)OC(=O)CC(C(=O)OC(C)(C)C)N(C/C=C/c1cccc(Oc2ccccc2)c1)Cc1cccc(Oc2ccccc2)c1 (stereo not drawn) [compound 76]	–	–	EPO/EBP-Ig % inh @ 50 μM (Table 5, 50 μM): 25%
O=C(O)CC(C(=O)O)N(C/C=C/c1cccc(Oc2ccccc2)c1)Cc1cccc(Oc2ccccc2)c1 (stereo not drawn) [compound 77]	–	–	IC50: 40 µM; IC30 μM (Inhibition of EPO binding to EBP-Ig) (0.5 nM [125I]EPO, 0–500 μM test compound): 30 µM; inhibition at 50 µM (read-out: % inh @ 50 μM (Inhibition of EPO binding to EBP-Ig)): 52%; inhibition at 50 µM (read-out: EPO/EBP-Ig % inh @ 50 μM, Table 5, 50 μM): 52%
COc1ccc(C(=O)Nc2ccc(/C=C/CN(Cc3ccc(OCc4ccccc4)cc3)C(CCC(=O)O)C(=O)O)cc2)cc1 (stereo not drawn) [compound 82]	–	–	% inh @ 50 μM (Inhibition of EPO binding to EBP-Ig) (50 μM test compound, 0.5 nM [125I]EPO, average % inhibition): 32%; EPO/EBP-Ig % inh @ 50 μM (Table 5, 50 μM): 32%
O=C(O)CCCC(=O)Nc1ccc(/C=C/CN(Cc2ccc(OCc3ccccc3)cc2)C(CCC(=O)O)C(=O)O)cc1 (stereo not drawn) [compound 83]	–	–	EPO/EBP-Ig % inh @ 50 μM (Table 5, 50 μM): 18%
O=C(O)CCC(C(=O)O)N(C/C=C/c1ccc(NC(=O)C(F)(F)C(F)(F)F)cc1)Cc1ccc(OCc2ccccc2)cc1 (stereo not drawn) [compound 84]	–	–	EPO/EBP-Ig % inh @ 50 μM (Table 5, 50 μM): 14%
